EP2270002A1 (Vereniging voor Christelijk Hoger Onderwijs, …, priority 2009, dated 2011)

The molecules below were run against histamine H4 receptor (Homo sapiens, UniProt Q9H3N8) (assay: histamine H4 receptor Ki (Table 1; no method described)).
histamine H4 receptor, sequence (Q9H3N8 whole entry, species assumed): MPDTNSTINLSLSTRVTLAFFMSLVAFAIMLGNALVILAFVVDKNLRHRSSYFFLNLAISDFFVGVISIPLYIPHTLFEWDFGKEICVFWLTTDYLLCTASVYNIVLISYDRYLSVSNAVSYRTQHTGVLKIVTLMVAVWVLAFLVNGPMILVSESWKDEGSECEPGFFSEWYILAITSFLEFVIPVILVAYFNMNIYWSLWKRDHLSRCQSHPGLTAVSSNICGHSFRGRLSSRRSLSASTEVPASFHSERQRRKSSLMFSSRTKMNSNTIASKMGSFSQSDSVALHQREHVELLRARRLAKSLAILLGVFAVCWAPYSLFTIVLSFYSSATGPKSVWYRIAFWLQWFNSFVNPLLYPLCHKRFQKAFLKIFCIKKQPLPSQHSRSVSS
Format: binding
For `Cc1ccc2c(N3CCN(C)CC3)nc(N)nc2c1` [Compound 1], the Ki was 24 nM. For `CN1CCN(c2nc(N)nc3cc(Br)ccc23)CC1` [Compound 2, 7-bromo-4-(4-methylpiperazin-1-yl)quinazolin-2-amine], the Ki was 17 nM. For `CN1CCN(c2nc(N)nc3cc(-c4ccccc4)ccc23)CC1` [Compound 3, 4-(4-methylpiperazin-1-yl)-7-phenylquinazolin-2-amine], the Ki was 19 nM. For `Cc1cccc(C)c1-c1ccc2c(N3CCN(C)CC3)nc(N)nc2c1` [Compound 4, 7-(2,6-dimethylphenyl)-4-(4-methylpiperazin-1-yl)quinazolin-2-amine], the Ki was 90 nM. `CN1CCN(c2nc(N)nc3cc(-c4ccc(C#N)cc4)ccc23)CC1` [Compound 5, 4-(2-amino-4-(4-methylpiperazin-1-yl)quinazolin-7-yl)benzonitrile] gave a Ki of 29 nM. `COc1ccc(-c2ccc3c(N4CCN(C)CC4)nc(N)nc3c2)cc1` [Compound 6, 7-(4-methoxyphenyl)-4-(4-methylpiperazin-1-yl)quinazolin-2-amine] was tested, and the Ki was 55 nM. In the case of `CN1CCN(c2nc(N)nc3cc(-c4ccoc4)ccc23)CC1` [Compound 7, 7-(furan-3-yl)-4-(4-methylpiperazin-1-yl)quinazolin-2-amine], the Ki is reported as 6 nM. In the case of `CN1CCN(c2nc(N)nc3cc(-c4ccco4)ccc23)CC1` [Compound 8, 7-(furan-2-yl)-4-(4-methylpiperazin-1-yl)quinazolin-2-amine], the Ki is reported as 4 nM. Work on `CN1CCN(c2nc(N)nc3cc(-c4ccsc4)ccc23)CC1` [Compound 9, 4-(4-methylpiperazin-1-yl)-7-(thiophen-3-yl)quinazolin-2-amine] yielded a Ki of 5 nM. `Cc1cccc2c(N3CCN(C)CC3)nc(N)nc12` [Compound 10] was tested, and the Ki was 91 nM. For `CN1CCN(c2nc(N)nc3c(Br)cccc23)CC1` [Compound 11, 8-bromo-4-(4-methylpiperazin-1-yl)quinazolin-2-amine], the Ki was 111 nM. Molecule `CN1CCN(c2nc(N)nc3c(-c4ccccc4)cccc23)CC1` [Compound 12, 4-(4-methylpiperazin-1-yl)-8-phenylquinazolin-2-amine] has a Ki of 32 nM. `Cc1cccc(C)c1-c1cccc2c(N3CCN(C)CC3)nc(N)nc12` [Compound 13, 8-(2,6-dimethylphenyl)-4-(4-methylpiperazin-1-yl)quinazolin-2-amine] showed a Ki of 221 nM. With `CN1CCN(c2nc(N)nc3c(-c4ccc(C#N)cc4)cccc23)CC1` [Compound 14, 4-(2-amino-4-(4-methylpiperazin-1-yl)quinazolin-8-yl)benzonitrile] the Ki was 2330 nM. In the case of `COc1ccc(-c2cccc3c(N4CCN(C)CC4)nc(N)nc23)cc1` [Compound 15, 8-(4-methoxyphenyl)-4-(4-methylpiperazin-1-yl)quinazolin-2-amine], the Ki is reported as 945 nM. Molecule `CN1CCN(c2nc(N)nc3c(-c4ccoc4)cccc23)CC1` [Compound 16, 8-(furan-3-yl)-4-(4-methylpiperazin-1-yl)quinazolin-2-amine] has a Ki of 109 nM.
